One assay concerns SK-BR-3 cells. Description: In vitro cell viability assay (CellTiter-Glo, 6 days). As to conditions: Homo sapiens. It is filed as cell-based, human. On the procedure: (§1) FaDu, BxPC-3, HeLa, MV4-11, and RAJI cell lines were obtained from Deutsche Sammlung von Mikroorganismen und Zellkulturen (Leipzig, Germany). Jurkat NucLight Red cells were obtained from Essen BioScience Inc. (Ann Arbor, Mich., USA). SK-BR-3 and SK-OV-3 cells were cultured in McCoys 5A medium (Lonza; Walkersville, Md., USA) supplemented with 10% v/w Fetal Bovine Serum (FBS), Heat-inactivated (HI) (Gibco-Life Technologies; Carlsbad, Calif.) and 80 U/mL Pen/Strep (Gibco-Life Technologies), at 37° C. in a humidified incubator under 5% CO2 atmosphere. SW-620 cells were similarly maintained in RPMI 1640 medium (Lonza), containing 10% v/w FBS HI and 80 U/mL Pen/Strep. A-549 cells were similarly maintained in F-12K Nutrient Mixture (1×) (Gibco-Life Technologies) media supplemented with 80 U/mL Pen/Strep and 5% v/w FBS, which was Qualified (Q) (Gibco-Life Technologies). BT-474 and AU-565 cells were similarly maintained in RPMI 1640 medium (Lonza), containing 10% v/w FBS, which was Qualified (Q) (Gibco-Life Technologies), and 80 U/mL Pen/Strep. […] Jurkat NucLight Red cells were similarly maintained in RPMI 1640 medium (Lonza), containing 10% v/w FBS HI, 80 U/mL Pen/Strep and 0.5 μg/mL Puromycin (Gibco-Life Technologies). FaDu cells were cultured in EMEM medium (Lonza) supplemented with 10% v/w FBS HI (Gibco-Life Technologies), 1× GlutaMAX (Gibco-Life Technologies), and 80 U/mL Pen/Strep (Gibco-Life Technologies), at 37° C. in a humidified incubator under 5% CO2 atmosphere.
(§2) After an overnight incubation, 10 serial log 10 dilutions of the free drugs were made in DMSO (Sigma-Aldrich). These free drug dose-response curves were 10-times further diluted in complete growth medium. For the ADCs according to the invention 10 serial log 10 dilutions were made in complete growth medium. 10 μL of a composition comprising a free drug or an ADC according to the invention was added to the assay plate (final DMSO content for free drugs was 1%). […] […] Percentage cell survival was calculated by dividing the measured luminescence for each free drug or ADC according to the concentration with the average mean of untreated cells (1% or 0.1% DMSO control (for free drugs) or 100% complete growth medium (for ADCs)) multiplied by 100.
(§3) Curves were fitted by non-linear regression using the sigmoidal dose-response equation with variable slope (four parameters) using curve-fitting software (GraphPad Prism, version 9.4.0 for Windows, GraphPad, San Diego, Calif. or Electronic Laboratory Notebook (ELN) add-in BioAssay, version 19.1.0.0218, Perkin Elmer, Waltham, Mass.). Relative IC50 values were calculated as the concentration that gives a response halfway between bottom and top of the curve, when using a 4-parameter logistic fit. Data were reported as mean IC50 value of at least one experiment performed in duplicate.

The next assay has as its system BxPC-3 cells. The assay is described as above. It is filed as cell-based. As to conditions: Homo sapiens, free antifolate drugs, Table 1d. On the procedure:
as §1, §2, §3

Another assay concerns FaDu cells. The assay is described as above. As to conditions: Homo sapiens, free antifolate drugs, Table 1d. In kind it is cell-based. How it is done: as §1, §2, §3
The subject of assay [1] is Jurkat NucLight Red cells. The assay is described as above. It is filed as cell-based, human. Conditions: Homo sapiens, Jurkat, free antifolate drugs. How it is done:
as §1
(§4) After an overnight incubation, 10 serial log 10 dilutions of the free drugs were made in DMSO (Sigma-Aldrich). These free drug dose-response curves were 10-times further diluted in complete growth medium. For the ADCs according to the invention 10 serial log 10 dilutions were made in complete growth medium. 10 μL of a composition comprising a free drug or an ADC according to the invention was added to the assay plate (final DMSO content for free drugs was 1%). […] Cell viability was assessed after 6 days using a luminescent assay kit (CellTiter-Glo™ (CTG), Promega Corporation) according to the manufacturer's instructions. Percentage cell survival was calculated by dividing the measured luminescence for each free drug or ADC according to the concentration with the average mean of untreated cells (1% or 0.1% DMSO control (for free drugs) or 100% complete growth medium (for ADCs)) multiplied by 100.
as §3

Another assay has as its system A-549 cells. Described as above. It is filed as cell-based. As to conditions: Homo sapiens, A549; free antifolate drugs, Table 1a; $ steep hillslope. How it is done:
(§5) Human tumor cell lines SK-BR-3, SW-620, A-549, BT-474, Jurkat Clone E6-1, AU-565, and SK-OV-3 were obtained from American Type Culture Collection (Rockville, Md., USA). FaDu, BxPC-3, HeLa, MV4-11, and RAJI cell lines were obtained from Deutsche Sammlung von Mikroorganismen und Zellkulturen (Leipzig, Germany). Jurkat NucLight Red cells were obtained from Essen BioScience Inc. (Ann Arbor, Mich., USA). SK-BR-3 and SK-OV-3 cells were cultured in McCoys 5A medium (Lonza; Walkersville, Md., USA) supplemented with 10% v/w Fetal Bovine Serum (FBS), Heat-inactivated (HI) (Gibco-Life Technologies; Carlsbad, Calif.) and 80 U/mL Pen/Strep (Gibco-Life Technologies), at 37° C. in a humidified incubator under 5% CO2 atmosphere. SW-620 cells were similarly maintained in RPMI 1640 medium (Lonza), containing 10% v/w FBS HI and 80 U/mL Pen/Strep. A-549 cells were similarly maintained in F-12K Nutrient Mixture (1×) (Gibco-Life Technologies) media supplemented with 80 U/mL Pen/Strep and 5% v/w FBS, which was Qualified (Q) (Gibco-Life Technologies). BT-474 and AU-565 cells were similarly maintained in RPMI 1640 medium (Lonza), containing 10% v/w FBS, which was Qualified (Q) (Gibco-Life Technologies), and 80 U/mL Pen/Strep. Jurkat Clone E6-1, BxPC-3, HeLa, MV4-11, and RAJI cells were similarly maintained in RPMI 1640 medium (Lonza), containing 10% v/w FBS HI and 80 U/mL Pen/Strep. Jurkat NucLight Red cells were similarly maintained in RPMI 1640 medium (Lonza), containing 10% v/w FBS HI, 80 U/mL Pen/Strep and 0.5 μg/mL Puromycin (Gibco-Life Technologies). FaDu cells were cultured in EMEM medium (Lonza) supplemented with 10% v/w FBS HI (Gibco-Life Technologies), 1× GlutaMAX (Gibco-Life Technologies), and 80 U/mL Pen/Strep (Gibco-Life Technologies), at 37° C. in a humidified incubator under 5% CO2 atmosphere.
as §4, with “Cells in complete growth medium were plated in 96-well plates (90 μL/well) and incubated at 37° C., 5% CO2 at the following cell densities: 6500 SK-BR-3, 4000 SW-620, 2500 A-549, 10000 BT-474, 3000 Jurkat Clone E6-1, 5000 AU-565, 1250 FaDu, 1250 BxPC-3, 1000 HeLa, 7500 MV4-11, 1000 RAJI, 3000 Jurkat NucLight Red, and 4000 SK-OV-3 cells per well. After” for “After”
as §3

For a further assay, the system named is BT-474 cells. The description is as above. In kind it is cell-based. As to conditions: Homo sapiens, free antifolate drugs, Table 1a, # no full dose-response curve. On the procedure:
as §1, §2, §3

For the next assay, the system named is Human tumor cell lines. The experiment in a line: In vitro cell viability assays, free antifolate drugs, overall comparison. In kind it is cell-based. As to conditions: compared with talotrexin or parent compound. On the procedure:
as §5
as §4, with “Cells in complete growth medium were plated in 96-well plates (90 μL/well) and incubated at 37° C., 5% CO2 at the following cell densities: 6500 SK-BR-3, 4000 SW-620, 2500 A-549, 10000 BT-474, 3000 Jurkat Clone E6-1, 5000 AU-565, 1250 FaDu, 1250 BxPC-3, 1000 HeLa, 7500 MV4-11, 1000 RAJI, 3000 Jurkat NucLight Red, and 4000 SK-OV-3 cells per well. After” for “After”
as §3

For another assay, the system named is SW-620 cells. Description: In vitro cell viability assay (CellTiter-Glo, 6 days). It is filed as cell-based. Conditions: Homo sapiens, free antifolate drugs, Table 1a. On the procedure:
as §1, §4, §3

The test system of a further assay is AU-565 cells. The assay is described as above. In kind it is cell-based, human. As to conditions: Homo sapiens, AU565, free antifolate drugs, Table 1b. On the procedure:
as §1, §2, §3

The next assay relates to SK-OV-3 cells. The description is as above. In kind it is cell-based. As to conditions: Homo sapiens, free antifolate drugs, Table 1a. How it is done:
as §1, §4, §3

The mark [2] stands for this setting: SK-BR-3, free antifolate drugs, Table 1a.

The IC50 is the concentration needed to halve the response being measured.

Bounds are passed on as bounds.

Take `Nc1ccc(C(=O)NCCC[C@H](NC(=O)c2ccc(CCc3ccc4nc(N)nc(N)c4c3F)cc2)C(=O)O)c(-c2nnn[nH]2)c1` [XG2, (S)-5-(4-Amino-2-(1H-tetrazol-5-yl)benzamido)-2-(4-(2-(2,4-diamino-5-fluoroquinazolin-6-yl)ethyl)benzamido)pentanoic acid]: the IC50 in the assay with SK-BR-3 cells (SK-BR-3, 24 h, free antifolate drugs, Table 1d) was determined as 0.9 nM; in the assay on BxPC-3 cells it was 0.92 nM; in the assay on FaDu cells, 0.31 nM; in [1] (24 h, Table 1d), 0.87 nM.

For the compound `Nc1ccc(C(=O)NCCC[C@H](NC(=O)c2ccc(CCc3ccc4nc(N)nc(N)c4c3)cc2)C(=O)O)cc1` [XJ4, (S)-5-(4-Aminobenzamido)-2-(4-(2-(2,4-diaminoquinazolin-6-yl)ethyl)benzamido)pentanoic acid], the results for the IC50 with SK-BR-3 cells (setting [2]), with A-549 cells and in the assay on BT-474 cells were 3.4 nM, about 10 nM and 8.1 nM, respectively. Further, in the assay on Human tumor cell lines, the “antifolate activity, comparison in words” value is given as “less active than talotrexin”.

Take `Nc1ccc(C(=O)NCCC[C@H](NC(=O)c2ccc(NCc3cnc4nc(N)nc(N)c4n3)cc2)C(=O)O)cc1` [XT35, (S)-5-(4-Aminobenzamido)-2-(4-(((2,4-diaminopteridin-6-yl)methyl)amino)benzamido) pentanoic acid]: the figures for the half-maximal inhibitory concentration (IC50) with SK-BR-3 cells (setting [2]), with SW-620 cells and with A-549 cells were 3.1 nM, 2.5 nM and 16 nM, respectively. The “antifolate activity, comparison in words” value in the assay on Human tumor cell lines was “less active than talotrexin”.

Regarding `[N-]=[N+]=Nc1ccc(C(=O)NCCC[C@H](NC(=O)c2ccc(CCc3cnc4nc(N)nc(N)c4n3)cc2)C(=O)O)cc1` [XX5, (S)-5-(4-Azidobenzamido)-2-(4-(2-(2,4-diaminopteridin-6-yl)ethyl)benzamido) pentanoic acid], the IC50 in the assay on SK-BR-3 cells (setting [2]) was found to be 16 nM; in the assay on SW-620 cells it was 7.2 nM; in the assay on A-549 cells, 76 nM. The “antifolate activity, comparison in words” value in the assay with Human tumor cell lines is “less active than talotrexin”.

`Nc1ccc(C(=O)NCCC[C@H](NC(=O)c2ccc(CCc3cnc4nc(N)nc(N)c4n3)cc2)C(=O)O)cc1` [XX7, (S)-5-(4-Aminobenzamido)-2-(4-(2-(2,4-diaminopteridin-6-yl)ethyl)benzamido) pentanoic acid]: the values for the IC50 in the assay on SK-BR-3 cells (setting [2]), in the assay with SW-620 cells and in the assay with A-549 cells were 6.5 nM, 2.8 nM and 29 nM, respectively. Besides, the “antifolate activity, comparison in words” value in the assay on Human tumor cell lines was “less active than talotrexin”.

For `CN(Cc1cnc2nc(N)nc(N)c2n1)c1ccc(C(=O)N[C@@H](CCCNC(=O)c2ccc(N)cc2)C(=O)O)cc1` [XX12, (S)-5-(4-aminobenzamido)-2-(4-(((2,4-diaminopteridin-6-yl)methyl)(methyl)amino)benzamido) pentanoic acid], the figures for the half-inhibitory concentration (IC50) in the assay with SK-BR-3 cells (setting [2]), in the assay on SW-620 cells and with A-549 cells were 17 nM, 7.5 nM and 42 nM, respectively. Moreover, in the assay on Human tumor cell lines, the “antifolate activity, comparison in words” value is “less active than talotrexin”.

`Nc1ccc(C(=O)NCCC[C@H](NC(=O)c2ccc(NCc3cnc4nc(N)nc(N)c4n3)cc2)C(=O)O)c(-c2nn[nH]n2)c1` [XX35, (S)-5-(4-Amino-2-(2H-tetrazol-5-yl)benzamido)-2-(4-(((2,4-diaminopteridin-6-yl)methyl)amino)benzamido)pentanoic acid]: the 50% inhibitory concentration (IC50) was 0.62 nM in the assay on AU-565 cells; 1.3 nM in the assay with SK-BR-3 cells (setting [2]); 1.03 nM in the assay on SK-BR-3 cells (SK-BR-3, free antifolate drugs, Table 1b, # no full dose-response curve); about 2.5 nM in the assay with A-549 cells; 4.3 nM with BT-474 cells; 1.4 nM in [1] (Table 1b).

As for `Nc1ccc(C(=O)NCCC[C@H](NC(=O)c2ccc(NCc3cnc4nc(N)nc(N)c4n3)cc2)C(=O)O)c(S(=O)(=O)O)c1` [XX37, (S)-5-(4-Amino-2-sulfobenzamido)-2-(4-(((2,4-diaminopteridin-6-yl)methyl)amino)benzamido) pentanoic acid], the results for the IC50 with SK-BR-3 cells (setting [2]), with A-549 cells and in the assay on BT-474 cells were 2.4 nM, 4 nM and 7.5 nM, respectively.

Consider `N#Cc1cc(N)ccc1-c1cn(CCC[C@H](NC(=O)c2ccc(NCc3cnc4nc(N)nc(N)c4n3)cc2)C(=O)O)nn1` [XX47, (S)-5-(4-(4-Amino-2-cyanophenyl)-1H-1,2,3-triazol-1-yl)-2-(4-(((2,4-diaminopteridin-6-yl)methyl)amino)benzamido)pentanoic acid], for which the IC50 is about 14 nM in the assay with SK-BR-3 cells (setting [2]), over 100 nM with SK-OV-3 cells and about 100 nM in the assay on BT-474 cells.

The values above are taken from patent US20230144211A1, “ANTIFOLATE LINKER-DRUGS AND ANTIBODY-DRUG CONJUGATES” (Byondis B.V., priority 2020, published 2023).
